Measured values as given in ChEMBL document CHEMBL1149522, “Synthesis of 3H-spiro[benzofuran-2,1'-cyclohexane] derivatives from naturally occurring filifolinol and their classical complement pathway inhibitory activity” (Bioorg Med Chem Lett, 2006).
Values joined by “and” are separate entries in the source; they are usually repeats but may differ in a detail not shown here. Equal entries are not always repeated.

What follows are compounds tested on RBCs (assay: Inhibition of complement-induced hemolysis in sensitized sheep erythrocytes at 253 ug/ml). Details: Ovis aries, Erythrocyte.
Type: functional
With `CC(=O)c1cc2c(cc1O)C[C@@]1(O2)[C@@H](C)CC[C@@H](O)C1(C)C` the inhibition at 253 µg/mL was 17%.

The compounds below were run on RBCs (assay: Inhibition of complement-induced hemolysis in sensitized sheep erythrocytes). Details: Ovis aries, Erythrocyte.
Type: functional, cell-based
With `C[C@H]1CC[C@@H](O)C(C)(C)[C@@]12Cc1cc(C(=O)[O-])cc(C#N)c1O2.[Na+]` the IC50 was 1.32 mM and 415 µg/mL.
With `COc1cc(C(=O)[O-])cc2c1CC1(CCCCC1)O2.[Na+]` the IC50 was 820 µM and 214 µg/mL.
For `C[C@H]1CC[C@@H](O)C(C)(C)[C@@]12Cc1cc(O)ccc1O2`, the IC50 was 455 µM and 260 µg/mL.
With `C[C@]1(O)CC[C@@H]([C@]2(C)Cc3c(O)ccc(C(=O)[O-])c3O2)C[C@H]1O.[Na+]` the IC50 was 1.6 mM and 515 µg/mL.
`COc1ccc(C(=O)[O-])c2c1CC1(CCCCC1)O2.[Na+]` was tested, and the IC50 was 1.3 mM and 341 µg/mL.
`C[C@@H]1CCC2C(C)(C)[C@H](O)[C@H](O)C[C@]2(C)[C@@]12Cc1c(O)cc(C(=O)[O-])c(C=O)c1O2.[Na+]` (stereo partly specified) was tested, and the IC50 was 570 µM and 238 µg/mL.
With `C[C@H]1CC[C@@H](O)C(C)(C)[C@@]12Cc1cc(C(=O)[O-])ccc1O2.[Na+]` the IC50 was 2 mM and 580 µg/mL.
`COc1cc(C(=O)[O-])c(C=O)c2c1CC1(CCCCC1)O2.[Na+]` was tested, and the IC50 was 160 µM and 44 µg/mL.
`CC(=O)c1c(O)ccc2c1C[C@@]1(O2)[C@@H](C)CC[C@@H](O)C1(C)C` was tested, and the IC50 was 1.07 mM and 320 µg/mL.
In the case of `C[C@H]1CC[C@@H](O)C(C)(C)[C@@]12Cc1cc(C(=O)[O-])cc(Br)c1O2.[Na+]`, the IC50 is reported as 950 µM and 350 µg/mL.
